Experimental findings from US20060069132A1, “Azolecarboxamide herbicides” (priority 2004, published 2006) are described below.

Each structure is given as a SMILES string.

Assay in all cases: Test C postemergence herbicide test
One assay concerns winter barley. The assay is classed as in vivo, Hordeum vulgare. The settings on record: for Barley, Winter plant response rating: 500 g ai/ha. As to the method:
(§1) At the same time, plants selected from these crop and weed species and also winter barley (Hordeum vulgare L.), blackgrass (Alopecurus myosuroides Huds.), canarygrass (Phalaris minor Retz.), chickweed (Stellaria media (L.) Vill.), downy bromegrass (Bromus tectorum L.), green foxtail (Setaria viridis (L.) Beauv.), Italian ryegrass (Lolium multiflorum Lam.), wheat (Triticum aestivum L.), wild oat (Avenafatua L.) and windgrass (Apera spica-venti (L.) Beauv.) were treated with postemergence applications of some of the test chemicals formulated in the same manner. Plants ranged in height from 2 to 18 cm (1- to 4-leaf stage) for postemergence treatments. Plant species in the flooded paddy test consisted of rice (Oryza sativa), smallflower umbrella sedge (Cyperus difformis L.), ducksalad (Heteranthera limosa (Sw.) Willd.) and barnyardgrass (Echinochloa crus-galli (L.) Beauv.) grown to the 2-leaf stage for testing. Treated plants and controls were maintained in a greenhouse for 12 to 14 days, after which time all species were compared to controls and visually evaluated. Plant response ratings, summarized in Table C, are based on a scale of 0 to 100 where 0 is no effect and 100 is complete control. A dash (-) response means no test result.

The next assay has as its system blackgrass. The assay is classed as in vivo, Alopecurus myosuroides. The settings on record: for Blackgrass plant response rating: 500 g ai/ha. Here is the method:
as §1

A further assay relates to canarygrass. The assay is classed as in vivo, Phalaris minor. As to the method: as §1
The next assay deals with wheat. The assay is classed as in vivo, Triticum aestivum. Here is the method: as §1
Another assay concerns wild oat. The assay is classed as in vivo, Avenafatua. As to the method:
as §1

The mark [1] stands for this setting: Postemergence, 125 g ai/ha, scale 0 to 100, 0 no effect, 100 complete control.
Setting [2] is: Postemergence, 250 g ai/ha, scale 0 to 100, 0 no effect, 100 complete control.
Setting [3] is: postemergence, 62 g ai/ha, scale 0 to 100 (0 no effect, 100 complete control).
Setting [4] is: postemergence, 125 g ai/ha, scale 0 to 100.
Where [5] appears, read: postemergence, 62 g ai/ha, scale 0 to 100.
[6] abbreviates: Postemergence, 500 g ai/ha, scale 0 to 100.
[7] abbreviates: postemergence, 31 g ai/ha, scale 0 to 100.
Setting [8] is: Postemergence, 500 g ai/ha, scale 0 to 100, 0 no effect, 100 complete control.

In the case of `CCn1nc(C(C)(C)C)cc1C(=O)Nc1cccc(OC(F)F)c1` [Compound 332], in the assay with winter barley (Postemergence, scale 0 to 100), the “Barley, Winter plant response rating” value turned out to be 40. Also, the “Plant response rating, Barley, Winter” value with winter barley (setting [1]) stood at 35; with winter barley (setting [2]), 40; with winter barley (setting [3]) it was 35. Besides, the “Blackgrass plant response rating” value with blackgrass (Postemergence, scale 0 to 100) stood at 70. In addition, the “Plant response rating, Blackgrass” value in the assay with blackgrass (setting [2]) is 100; with blackgrass (setting [4]), 70; in the assay with blackgrass (setting [5]), 60. Also, in the assay with canarygrass (setting [6]), the “Canarygrass plant response rating” value was 70. For the same molecule, the “Plant response rating, Canarygrass” value in the assay with canarygrass (setting [2]) is on record as 60; with canarygrass (setting [4]), 45; in the assay on canarygrass (setting [5]) it was 35. In the assay with wheat (setting [6]), the “Wheat plant response rating” value amounted to 35. In addition, the figures for the “Plant response rating, Wheat” value in the assay on wheat (setting [2]), with wheat (setting [4]) and in the assay on wheat (setting [5]) were 35, 30 and 30, respectively. Moreover, the “Oat, Wild plant response rating” value with wild oat (setting [6]) was determined as 70. Further, the “Plant response rating, Oat, Wild” value in the assay on wild oat (setting [2]) is 70; in the assay with wild oat (setting [4]) it was 65; in the assay on wild oat (setting [5]) it was 50.
With `CCn1nc(C(C)(C)C)cc1C(=O)Nc1cc(C(=S)N(C)C)ccn1` [Compound 334], the “Plant response rating, Barley, Winter” value came out at 30 in the assay on winter barley (setting [1]), 30 in the assay with winter barley (setting [2]), 20 with winter barley (setting [7]) and 20 with winter barley (setting [3]). Also, the “Plant response rating, Blackgrass” value is 95 in the assay with blackgrass (setting [2]), 95 in the assay with blackgrass (setting [4]), 75 with blackgrass (setting [7]) and 90 with blackgrass (setting [5]). The “Plant response rating, Canarygrass” value with canarygrass (setting [2]) stood at 45; in the assay on canarygrass (setting [4]) it was 35; with canarygrass (setting [7]), 20; in the assay on canarygrass (setting [5]) it was 25. In addition, the “Plant response rating, Wheat” value in the assay on wheat (setting [2]) was 75; in the assay on wheat (setting [4]), 75; in the assay with wheat (setting [5]) it was 65. In addition, the “Plant response rating, Oat, Wild” value in the assay on wild oat (setting [2]) was determined as 95; in the assay with wild oat (setting [4]), 75; in the assay on wild oat (setting [5]) it was 55.
Regarding `CCNC(=O)c1ccc(F)c(NC(=O)c2c3c(nn2CC)C(C)(C)CC3)c1` [Compound 353], the “Barley, Winter plant response rating” value in the assay on winter barley (Postemergence, scale 0 to 100) is given as 25. Also, the figures for the “Plant response rating, Barley, Winter” value in the assay on winter barley (setting [1]), in the assay on winter barley (setting [2]) and with winter barley (setting [3]) were 15, 20 and 5, respectively. Moreover, the “Blackgrass plant response rating” value in the assay with blackgrass (Postemergence, scale 0 to 100) is 70. Moreover, the “Plant response rating, Blackgrass” value was determined as 60 with blackgrass (setting [2]), 20 with blackgrass (setting [4]) and 0 in the assay on blackgrass (setting [5]). Besides, the “Plant response rating, Canarygrass” value in the assay on canarygrass (setting [2]) is on record as 10; with canarygrass (setting [8]), 20; in the assay with canarygrass (setting [4]) it was 10; with canarygrass (setting [5]), 0. Besides, the “Plant response rating, Wheat” value in the assay on wheat (setting [2]) amounted to 30; in the assay on wheat (setting [8]), 35; in the assay with wheat (setting [4]), 15; in the assay on wheat (setting [5]), 10. Further, the “Plant response rating, Oat, Wild” value worked out at 40 with wild oat (setting [2]), 60 with wild oat (setting [8]), 30 in the assay on wild oat (setting [4]) and 10 in the assay with wild oat (setting [5]).
For `CCOC(=O)c1cccc(NC(=O)c2nn(C(C)(C)CC)nc2CC)c1` [Compound 375], the “Plant response rating, Barley, Winter” value is 30 in the assay on winter barley (setting [1]), 40 with winter barley (setting [2]), 10 in the assay with winter barley (setting [7]) and 20 in the assay on winter barley (setting [3]). The “Plant response rating, Blackgrass” value in the assay with blackgrass (setting [2]) is 55; with blackgrass (setting [4]) it was 45; in the assay with blackgrass (setting [7]), 30; in the assay with blackgrass (setting [5]) it was 35. In addition, the “Plant response rating, Canarygrass” value in the assay on canarygrass (setting [2]) turned out to be 35; in the assay on canarygrass (setting [4]), 35; in the assay with canarygrass (setting [7]), 30; with canarygrass (setting [5]), 30. In addition, the “Plant response rating, Wheat” value came to 30 in the assay with wheat (setting [4]) and 25 in the assay on wheat (setting [5]). The results for the “Plant response rating, Oat, Wild” value in the assay on wild oat (setting [4]) and in the assay on wild oat (setting [5]) were 55 and 45, respectively.
`C=CCNC(=O)c1cccc(NC(=O)c2nn(C(C)(C)C)nc2CC)c1` [Compound 414]: in the assay on winter barley (Postemergence, scale 0 to 100), the “Barley, Winter plant response rating” value was determined as 45. Besides, the “Plant response rating, Barley, Winter” value is 30 with winter barley (setting [1]), 45 in the assay with winter barley (setting [2]) and 10 in the assay on winter barley (setting [3]). Moreover, the “Blackgrass plant response rating” value with blackgrass (Postemergence, scale 0 to 100) is given as 60. Also, the “Plant response rating, Blackgrass” value in the assay with blackgrass (setting [2]) turned out to be 45; in the assay with blackgrass (setting [4]), 40; with blackgrass (setting [5]) it was 40. Further, the “Plant response rating, Canarygrass” value amounted to 50 in the assay on canarygrass (setting [2]), 60 in the assay with canarygrass (setting [8]), 45 with canarygrass (setting [4]) and 45 with canarygrass (setting [5]). For the same molecule, the “Plant response rating, Wheat” value with wheat (setting [8]) amounted to 30; with wheat (setting [4]), 10; in the assay on wheat (setting [5]), 10. The entries for the “Plant response rating, Oat, Wild” value in the assay on wild oat (setting [8]), in the assay on wild oat (setting [4]) and in the assay with wild oat (setting [5]) were 55, 45 and 35, respectively.
